# Data as given in article PMC8275407 (BioMed Research International, 2021).
# Molecular target: recombinant soluble dimeric mouse H-2D^b:Ig (DimerX) protein (Mus musculus, UniProt P01899)
# Assay: biochemical
# Type: binding
# Chain of recombinant soluble dimeric mouse H-2D^b:Ig (DimerX) protein (P01899 25-298 limits assumed): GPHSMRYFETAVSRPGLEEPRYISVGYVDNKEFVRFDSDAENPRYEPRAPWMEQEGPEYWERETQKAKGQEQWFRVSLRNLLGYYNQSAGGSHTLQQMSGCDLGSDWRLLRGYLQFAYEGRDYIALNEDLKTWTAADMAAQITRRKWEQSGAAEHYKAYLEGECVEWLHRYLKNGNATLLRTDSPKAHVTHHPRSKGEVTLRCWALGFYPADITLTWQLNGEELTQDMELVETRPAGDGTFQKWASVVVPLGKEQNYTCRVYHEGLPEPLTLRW
structure (smiles),measurement,setting,value
CC[C@H](C)[C@H](NC(=O)CNC(=O)[C@@H](NC(=O)[C@H](Cc1ccccc1)NC(=O)[C@H](CCCCN)NC(=O)[C@H](CO)NC(=O)[C@H](CC(N)=O)NC(=O)[C@H](C)NC(=O)[C@H](CCCCN)NC(=O)[C@@H](NC(=O)[C@H](Cc1ccc(O)cc1)NC(=O)[C@@H](N)CCC(N)=O)[C@@H](C)CC)[C@@H](C)CC)C(=O)N[C@H](C(=O)N[C@@H](CCC(=O)O)C(=O)O)[C@@H](C)O [TT830-843],Kd,,344 ± 60 nM
same,kon,"pH 7.2, read-out: association rate constant ka",900000 M⁻¹ s⁻¹
same,koff,"pH 7.2, read-out: dissociation rate constant kd",0.31 ± 0.02 s⁻¹
